Measured values reported in PubChem BioAssay AID624404 (Broad Institute, 2012).
Inconclusive results are not listed. Activity calls are given as the source filed them.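 How the source made its calls: active means luciferase signal rise whose fitted curve crosses a set activity limit at or below the top valid tested dose; inconclusive means flat fit with 30 to 70% rise, or poor fit; inactive means signal falling, flat within 30%, or crossing above top dose.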

tested on: D54 LucT luciferase reporter counterscreen, luminescence, 24 h; assay: reporter signal increase, D54 LucT cells – cell-based, luminescence, cherry pick, counter-screen for N-linked glycosylation inhibitor project, dose response (AID 624404)

Compound | AC35
Cc1noc(C)c1COc1cccc(C(=O)OC(C)C(=O)Nc2ccc3c(c2)OCO3)c1 (configuration not stated) | 1600 nM
O=C(Nc1ccccc1O)c1ccc(NS(=O)(=O)c2cccc3cccnc23)cc1 | 4410 nM
O=C(c1ccc(CS(=O)c2ccccc2Cl)o1)N1CCN(c2ccccn2)CC1 (configuration not stated) | 5640 nM
Cc1cccc(CCNC(=O)CCCOc2cc(=O)n(C)c3ccccc23)c1 | 321 nM
COc1cc2c(cc1OC)C(c1cccs1)N(C(=O)c1cccnc1)CC2 (configuration not stated) | 438 nM
O=C(N/N=C/c1ccc(F)cc1)c1sccc1OCc1ccc(F)cc1 | 1580 nM
CCN1C(=O)c2cccc3c(S(=O)(=O)Nc4ccccn4)ccc1c23 | 1860 nM
CC(C)(C)S(=O)N1Cc2cc(C(=O)NCC(F)(F)F)nc(-c3cccc(-c4cccc(F)c4)c3)c2[C@@H]1CCO (some centres not stated) | 1780 nM
COc1ccc(Cl)cc1S(=O)(=O)Nc1ccc2c(c1)n(C)c(=O)n2C | 535 nM
O=C1[C@H]2[C@@H](c3ccc(F)cc3)N3C(=O)N(c4cccc(Br)c4)C(=O)[C@@]3(Cc3ccccc3)[C@H]2C(=O)N1C1CCCCC1 | 480 nM
COc1cc2cnc(-c3ccccc3)cc2cc1OC | 2540 nM
CC1(C(=O)NCCC(F)(F)F)Cc2c(-c3cccc(C(F)(F)F)c3)ccnc2O1 (configuration not stated) | > 19500 nM (inactive)
COc1ccc(/C=N/NC(=O)c2cccc(NC(=O)c3ccccc3Cl)c2)cc1 | 495 nM
Cc1ccc(-n2nc(C)c(/C=N/NC(=O)c3cccs3)c2Cl)cc1 | 55.6 nM
C=CCOc1ccc(C(=O)Nc2ccccc2C(=O)NCc2cccnc2)cc1 | 109 nM
Cc1ccc(C)n1-c1cccc(NC(=O)c2ccccc2)c1 | 7120 nM
O=C(NCCCN1CCOCC1)c1cc(-c2ccccc2)on1 | 3040 nM
C=CCn1c(O)c(/C=C2/C=CC=N2)c(=O)[nH]c1=O | 14300 nM
COCCCNC(=O)Cc1c(C)c2c(cc(C)c3c(C(C)(C)C)coc32)oc1=O | 156 nM
Nc1cc2c(cc1Br)-c1c(C(=O)O)cccc1C2O (configuration not stated) | 2680 nM
CCC(C)C(=O)OC1CCC=C2C=CC(C)C(CCC3CC(O)CC(=O)O3)C21 (configuration not stated) | 499 nM
COc1ccc(CNCC(=O)Nc2ccccc2-n2cccc2)cc1 | 62.9 nM
CCc1ccc(C(=O)Nc2ccc3c(c2)n(C)c(=O)n3C)cc1 | 2630 nM
Cc1cc(=O)[nH]c2c(C)cc(S(=O)(=O)N3CCCCC3)cc12 | 411 nM
CCn1ncc(C2=NOC(C(=O)NCc3ccccc3)C2)c1C (configuration not stated) | 9540 nM
CC(=O)c1cccc(Nc2cc(C)nc3c(C)cc(C)cc23)c1 | 23.4 nM

Compound | AC35
CCN(CCCNC(=O)CCCOc1cc(=O)n(C)c2ccccc12)Cc1ccccc1 | 510 nM
Cc1ccc2c(CC(=O)NCc3ccco3)coc2c1C | 4460 nM
COc1ccc(/C=C/C(=O)Oc2cccc(/C=N/NC(=O)COc3c(C)cccc3C)c2)cc1 | 3250 nM
Cc1ccc(C(=O)N/C(=C/c2cccs2)C(=O)NCCc2c[nH]c3ccccc23)cc1 | 1170 nM
NNC(=O)c1ccc(OCC2CC(c3ccc(Cl)cc3)=NO2)cc1 (configuration not stated) | 157 nM
CC(=O)Nc1sc(C)c(C)c1C(=O)OCC(=O)Nc1ccccc1 | 1920 nM
COc1cc2c(cc1OC)C(c1ccccc1)N(C(=O)c1ccco1)CC2 (configuration not stated) | 375 nM
COc1cc2c(cc1OC)C(c1cccs1)N(C(=O)c1ccncc1)CC2 (configuration not stated) | 1700 nM
COc1ccc(-c2oc3cc(O)c(OC)c(O)c3c(=O)c2OC)cc1O | 909 nM
Cc1ccc(C)c(Cn2nnc3c(=O)[nH]c(C4CCN(C(=O)c5ccco5)CC4)nc32)c1 | 852 nM
O=C(N/N=C/c1ccco1)c1ccccc1OCc1ccccc1Cl | 1110 nM
C[C@@H](NC(=O)c1ncn2c1c(=O)[nH]c1ccc(Br)cc12)c1ccccc1 | 210 nM
COc1ccc2c(c1)OC[C@H]1[C@H]2N2C(=O)c3ccc(F)cc3NC(=O)[C@@]2(C)[C@H]1c1ccccc1 | 1070 nM
CCOc1ccc(N2C(=O)Nc3ccccc3C2(O)C(=O)N2CCN(c3ccccn3)CC2)cc1 (configuration not stated) | 1200 nM
CC(=O)NC(=C(Cl)Cl)S(=O)(=O)c1ccccc1 | 3670 nM
COc1ccc(C2(CNC(=O)c3cc(OC)c(OC)c(OC)c3)CCCC2)cc1OC | 3410 nM
CC1CN(C(=O)c2cc(-c3ccncc3)nc3ccccc23)CC(C)O1 (configuration not stated) | 1720 nM
Cc1ccc(C(=O)NCc2nnc(SCC(=O)NC(C)c3ccccc3)n2C)cc1 (configuration not stated) | 2430 nM
C/C(=N\O)C(=O)C(CN1CCCCC1)CN1CCCCC1 | 1210 nM
O=C(NC1CCCCC1)c1cccc2c1C(=O)c1ccc(-c3ccc(OC(F)(F)F)cc3)cc1S2(=O)=O | 31.2 nM
Cc1ccc(Nc2nc(-c3sc(C)nc3C)cs2)cc1 | 46.9 nM
CCN(CC)c1ccc(/C=N/n2nnnc2N)c(O)c1 | 336 nM
Cc1cc2cc(CNC(=O)Cc3cccs3)ccc2n1C | 13600 nM
CC(=O)c1ccc(Nc2nc(-c3sc(C)nc3C)cs2)cc1 | 17.3 nM
CCOc1ccc(Nc2nc(N(C)c3ccccc3)nc(N)c2[N+](=O)[O-])cc1 | 128 nM
COc1cccc(/C=C2\SC(=S)N(CCC(=O)N3CCCCC3)C2=O)c1 | 4370 nM

Compound | AC35
O=S(=O)([N-]c1nc2ccccc2nc1-n1cc[n+](Cc2ccccc2)c1)c1ccc(Cl)cc1 | 89.8 nM
CC(=O)Nc1cccc(-c2ccnc3c2CC(C)(C(=O)NCC2CC2)O3)c1 (configuration not stated) | 11500 nM
O=C(N/N=C/c1ccc2c(c1)OCO2)C1COc2ccccc2O1 (configuration not stated) | 187 nM
Brc1ccc(C2=Nn3c(nnc3-c3n[nH]c4c3CCC4)SC2)cc1 | 394 nM
Cc1noc(C)c1COc1ccc(C(=O)NNC(=O)c2ccccc2)cc1 | 271 nM
COCCCNC(=O)c1sc2ncn(CC(=O)Nc3ccc(C)c(Cl)c3)c(=O)c2c1C | 2510 nM
CC(=O)Nc1ccc(CNc2ncnc3ccc(-c4c(C)noc4C)cc23)cc1 | 264 nM
COc1cc(/C=C(/C(=O)c2cccs2)c2nc3ccccc3[nH]2)cc(OC)c1O | 19.5 nM
N#Cc1c(N)n(CCc2ccc(F)cc2)c2nc3ccccc3nc12 | 1880 nM
COc1ccc(C(=O)N/N=C/C23CC[C@@H](O)CC2(O)CC[C@@H]2[C@@H]3CCC3(C)C(C4=CC(=O)OC4)CCC23O)cc1 (some centres not stated) | 388 nM
CC(=O)Nc1ccc(CC(=O)NCCC(c2ccccc2)c2ccccc2)cc1 | 7670 nM
C[C@@]12C(=O)Nc3cc(F)ccc3C(=O)N1[C@H]1c3ccccc3OC[C@@H]1[C@@H]2c1ccccc1 | 1510 nM
COCCCNC(=O)c1ccc(-c2c(C)noc2C)c2ccoc12 | 2330 nM
COc1cc(NC(=O)CN2c3cccc4cccc(c34)S2(=O)=O)cc(OC)c1OC | 7530 nM
CC12CC[C@H]3[C@@H](CCC4(O)C[C@H](O)CCC34/C=N/NC(=O)c3ccccc3[N+](=O)[O-])C1(O)CCC2C1=CC(=O)OC1 (some centres not stated) | 4030 nM
NNC(=O)c1oc2nc(-c3cccs3)cc(-c3ccco3)c2c1N | 2930 nM
Cc1cc(=O)oc2cc(OCC3CC(c4ccccc4)=NO3)ccc12 (configuration not stated) | 1540 nM
CC(=O)Nc1ccc(NC(=O)c2ccc(-c3c(C)noc3C)c3ccoc23)cc1 | 5690 nM
CSc1ccc(/C=N/NC(=O)c2ccccc2Cl)cc1 | 1230 nM
COc1cc(C#Cc2ccc3cc(CCCO)oc(=O)c3c2)cc(OC)c1 | 62.8 nM
CCN(CC)c1ccc(C(=O)n2cnc3ccccc32)cc1 | 662 nM
Cc1cccc2c(C(=O)N3CCN(c4ccccc4)CC3)cc(-c3ccncc3)nc12 | 126 nM
Cc1ccc(-c2cc(C(=O)N3CC(C)OC(C)C3)c3ccccc3n2)o1 (configuration not stated) | 2910 nM
O=C(Nc1cc(Cl)ccc1N1CCOCC1)c1ccc(N2CCCC2=O)cc1 | 212 nM
O=C(c1ncn(Cc2ccccc2)c1C(=O)N1CCN(c2ccccc2)CC1)N1CCN(c2ccccc2)CC1 | 1230 nM
